The values that follow come from ChEMBL document CHEMBL5380831, “Azolylpyrimidinediols as Novel Structural Scaffolds of DNA-Groove Binders against Intractable Acinetobacter baumannii” (J Med Chem, 2023).

≈ marks a conversion by molar mass, not a printed value.

Common to all, as to type: functional
Experiment [1] deals with Staphylococcus aureus. As to the kind of experiment: Antibacterial activity against Staphylococcus aureus assessed as bacterial growth inhibition incubated for 24 hrs by broth microdilution method.
For experiment [2], the system named is Staphylococcus aureus. As to the kind of experiment: Antibacterial activity against methicillin-resistant Staphylococcus aureus assessed as bacterial growth inhibition incubated for 24 hrs by broth microdilution method. (In general: Broth dilution looks for growth in wells or tubes with falling amounts of substance.)
A further experiment concerns Enterococcus faecalis. As to the kind of experiment: Antibacterial activity against Enterococcus faecalis assessed as bacterial growth inhibition incubated for 24 hrs by broth microdilution method.
For experiment [3], the system named is Staphylococcus aureus. As to the kind of experiment: Antibacterial activity against Staphylococcus aureus ATCC 25923 assessed as bacterial growth inhibition incubated for 24 hrs by broth microdilution method.
The test system of experiment [4] is Staphylococcus aureus. As to the kind of experiment: Antibacterial activity against Staphylococcus aureus ATCC 29213 assessed as bacterial growth inhibition incubated for 24 hrs by broth microdilution method.
The test system of the next experiment is Klebsiella pneumoniae. As to the kind of experiment: Antibacterial activity against Klebsiella pneumoniae assessed as bacterial growth inhibition incubated for 24 hrs by broth microdilution method.
For experiment [5], the system named is Escherichia coli. As to the kind of experiment: Antibacterial activity against Escherichia coli assessed as bacterial growth inhibition incubated for 24 hrs by broth microdilution method.
For experiment [6], the system named is Escherichia coli. As to the kind of experiment: Antibacterial activity against Escherichia coli ATCC 25922 assessed as bacterial growth inhibition incubated for 24 hrs by broth microdilution method.
Experiment [7] concerns Pseudomonas aeruginosa. As to the kind of experiment: Antibacterial activity against Pseudomonas aeruginosa assessed as bacterial growth inhibition incubated for 24 hrs by broth microdilution method.
Experiment [8] relates to Pseudomonas aeruginosa. As to the kind of experiment: Antibacterial activity against Pseudomonas aeruginosa ATCC 27853 assessed as bacterial growth inhibition incubated for 24 hrs by broth microdilution method.
Experiment [9] has as its system Acinetobacter baumannii. As to the kind of experiment: Antibacterial activity against Acinetobacter baumannii assessed as bacterial growth inhibition incubated for 24 hrs by broth microdilution method.
Experiment [10] relates to Acinetobacter baumannii. As to the kind of experiment: Induction of drug resistance against Acinetobacter baumannii assessed as fold increase in MIC after 20 passages measured for 20 days by sequential passaging method. Conditions: time 20.0 day.

By MIC is commonly meant the lowest concentration that inhibits growth of the organism. `Cc1ncc([N+](=O)[O-])n1-c1nccc(N(CCO)CCO)n1`: the MIC with Staphylococcus aureus [1] worked out at 831 µM (≈ 256 µg/mL); in the experiment on Staphylococcus aureus [2] it was 831 µM (≈ 256 µg/mL); in the experiment on Enterococcus faecalis, 831 µM (≈ 256 µg/mL); in the experiment with Staphylococcus aureus [3], 831 µM (≈ 256 µg/mL); in the experiment with Staphylococcus aureus [4], 831 µM (≈ 256 µg/mL); in the experiment with Klebsiella pneumoniae, 415 µM (≈ 128 µg/mL). The MIC is 415 µM (≈ 128 µg/mL) with Escherichia coli [5]; 1660 µM (≈ 512 µg/mL) in the experiment on Escherichia coli [6]; 415 µM (≈ 128 µg/mL) with Pseudomonas aeruginosa [7]; 415 µM (≈ 128 µg/mL) in the experiment with Pseudomonas aeruginosa [8]; 415 µM (≈ 128 µg/mL) in the experiment on Acinetobacter baumannii [9].
Regarding `CCc1nccn1-c1ccnc(N(CCO)CCO)n1`, the minimum inhibitory concentration (MIC) in the experiment with Staphylococcus aureus [1] is 924 µM (≈ 256 µg/mL); in the experiment on Staphylococcus aureus [2], 924 µM (≈ 256 µg/mL); in the experiment with Enterococcus faecalis it was 924 µM (≈ 256 µg/mL); in the experiment with Staphylococcus aureus [3], 924 µM (≈ 256 µg/mL); in the experiment with Staphylococcus aureus [4] it was 924 µM (≈ 256 µg/mL); with Klebsiella pneumoniae, 1850 µM (≈ 512 µg/mL). Besides, the MIC in the experiment on Escherichia coli [5], with Escherichia coli [6], in the experiment on Pseudomonas aeruginosa [7], in the experiment with Pseudomonas aeruginosa [8] and in the experiment with Acinetobacter baumannii [9] was 924 µM (≈ 256 µg/mL) each time.
Turning to `CN(C)c1nccc(-n2cncn2)n1`, the MIC with Staphylococcus aureus [1], with Staphylococcus aureus [2], with Enterococcus faecalis, in the experiment with Staphylococcus aureus [3], in the experiment with Staphylococcus aureus [4] and in the experiment on Klebsiella pneumoniae was 1350 µM (≈ 256 µg/mL) throughout. Besides, the MIC was found to be 1350 µM (≈ 256 µg/mL) in the experiment with Escherichia coli [5]; 673 µM (≈ 128 µg/mL) in the experiment on Escherichia coli [6]; 337 µM (≈ 64.1 µg/mL) in the experiment on Pseudomonas aeruginosa [7]; 1350 µM (≈ 256 µg/mL) in the experiment on Pseudomonas aeruginosa [8]; 1350 µM (≈ 256 µg/mL) in the experiment on Acinetobacter baumannii [9].
For the compound `CCc1nccn1-c1nccc(N(CCO)CCO)n1`, the MIC in the experiment on Staphylococcus aureus [1] was 924 µM (≈ 256 µg/mL); in the experiment with Staphylococcus aureus [2] it was 924 µM (≈ 256 µg/mL); in the experiment with Enterococcus faecalis, 924 µM (≈ 256 µg/mL); in the experiment on Staphylococcus aureus [3], 924 µM (≈ 256 µg/mL); in the experiment on Staphylococcus aureus [4], 924 µM (≈ 256 µg/mL); in the experiment with Klebsiella pneumoniae it was 1850 µM (≈ 512 µg/mL). For the same compound, the MIC in the experiment on Escherichia coli [5], with Escherichia coli [6], with Pseudomonas aeruginosa [7], with Pseudomonas aeruginosa [8] and with Acinetobacter baumannii [9] was 924 µM (≈ 256 µg/mL) throughout.
As for `Nc1ccc(S(=O)(=O)Nc2ncccn2)cc1` [SULFADIAZINE], the MIC was 256 µM (≈ 64.1 µg/mL) in the experiment on Staphylococcus aureus [1]; 256 µM (≈ 64.1 µg/mL) in the experiment with Staphylococcus aureus [2]; 64 µM (≈ 16 µg/mL) with Enterococcus faecalis; 129 µM (≈ 32.3 µg/mL) with Staphylococcus aureus [3]; 54 µM (≈ 13.5 µg/mL) in the experiment with Staphylococcus aureus [4]; 1020 µM (≈ 256 µg/mL) in the experiment on Klebsiella pneumoniae. In addition, the MIC in the experiment with Escherichia coli [5] was 64 µM (≈ 16 µg/mL); with Escherichia coli [6], 64 µM (≈ 16 µg/mL); in the experiment with Pseudomonas aeruginosa [7] it was 31 µM (≈ 7.76 µg/mL); in the experiment with Pseudomonas aeruginosa [8] it was 64 µM (≈ 16 µg/mL); with Acinetobacter baumannii [9], 64 µM (≈ 16 µg/mL).
In the case of `O=C1c2cccc3c(N4CCN(c5nccc(-n6cncn6)n5)CC4)ccc(c23)C(=O)N1C(CO)CO`, the minimal inhibitory concentration (MIC) worked out at 512 µM (≈ 256 µg/mL) in the experiment on Staphylococcus aureus [1]; 512 µM (≈ 256 µg/mL) in the experiment with Staphylococcus aureus [2]; 256 µM (≈ 128 µg/mL) in the experiment with Enterococcus faecalis; 64 µM (≈ 32 µg/mL) in the experiment on Staphylococcus aureus [3]; 512 µM (≈ 256 µg/mL) in the experiment on Staphylococcus aureus [4]; 226 µM (≈ 113 µg/mL) with Klebsiella pneumoniae. Moreover, the minimum inhibitory concentration (MIC) in the experiment on Escherichia coli [5] was found to be 512 µM (≈ 256 µg/mL); in the experiment on Escherichia coli [6] it was 255 µM (≈ 128 µg/mL); with Pseudomonas aeruginosa [7], 512 µM (≈ 256 µg/mL); in the experiment with Pseudomonas aeruginosa [8], 512 µM (≈ 256 µg/mL); with Acinetobacter baumannii [9] it was 512 µM (≈ 256 µg/mL).
For the compound `CCN(CC)c1nccc(-n2cncn2)n1`, the MIC with Staphylococcus aureus [1] worked out at 1170 µM (≈ 256 µg/mL); in the experiment with Staphylococcus aureus [2], 1170 µM (≈ 256 µg/mL); in the experiment on Enterococcus faecalis, 587 µM (≈ 128 µg/mL); in the experiment with Staphylococcus aureus [3] it was 587 µM (≈ 128 µg/mL); in the experiment on Staphylococcus aureus [4] it was 587 µM (≈ 128 µg/mL); in the experiment on Klebsiella pneumoniae, 1170 µM (≈ 256 µg/mL). For the same compound, the MIC amounted to 587 µM (≈ 128 µg/mL) with Escherichia coli [5]; 587 µM (≈ 128 µg/mL) in the experiment on Escherichia coli [6]; 1170 µM (≈ 256 µg/mL) with Pseudomonas aeruginosa [7]; 587 µM (≈ 128 µg/mL) with Pseudomonas aeruginosa [8]; 1170 µM (≈ 256 µg/mL) in the experiment with Acinetobacter baumannii [9].
For `OCCN(CCO)c1ccnc(-n2ccnc2-c2ccccc2)n1`, the MIC stood at 787 µM (≈ 256 µg/mL) in the experiment with Staphylococcus aureus [1]; 1580 µM (≈ 512 µg/mL) in the experiment on Staphylococcus aureus [2]; 787 µM (≈ 256 µg/mL) with Enterococcus faecalis; 394 µM (≈ 128 µg/mL) with Staphylococcus aureus [3]; 787 µM (≈ 256 µg/mL) in the experiment on Staphylococcus aureus [4]; 787 µM (≈ 256 µg/mL) in the experiment on Klebsiella pneumoniae. Moreover, the MIC in the experiment with Escherichia coli [5] worked out at 787 µM (≈ 256 µg/mL); in the experiment with Escherichia coli [6], 1580 µM (≈ 512 µg/mL); in the experiment on Pseudomonas aeruginosa [7], 197 µM (≈ 64.1 µg/mL); in the experiment with Pseudomonas aeruginosa [8], 787 µM (≈ 256 µg/mL); in the experiment with Acinetobacter baumannii [9], 394 µM (≈ 128 µg/mL).
On to `CCn1cc(C(=O)O)c(=O)c2cc(F)c(N3CCNCC3)cc21` [NORFLOXACIN], for which the minimum inhibitory concentration (MIC) in the experiment with Staphylococcus aureus [1] was 3 µM (≈ 0.958 µg/mL); in the experiment on Staphylococcus aureus [2], 50 µM (≈ 16 µg/mL); with Enterococcus faecalis, 100 µM (≈ 31.9 µg/mL); in the experiment on Staphylococcus aureus [3], 2 µM (≈ 0.639 µg/mL); in the experiment on Staphylococcus aureus [4], 6 µM (≈ 1.92 µg/mL); with Klebsiella pneumoniae, 6 µM (≈ 1.92 µg/mL). Also, the MIC with Escherichia coli [5] was determined as 25 µM (≈ 7.98 µg/mL); in the experiment with Escherichia coli [6], 3 µM (≈ 0.958 µg/mL); in the experiment on Pseudomonas aeruginosa [7] it was 1 µM (≈ 0.319 µg/mL); in the experiment with Pseudomonas aeruginosa [8], 3 µM (≈ 0.958 µg/mL); in the experiment with Acinetobacter baumannii [9], 6 µM (≈ 1.92 µg/mL). In the experiment with Acinetobacter baumannii [10], the fold change (FC) came out at 31.
As to `Brc1ccc2c3ccccc3n(-c3nccc(-n4cncn4)n3)c2c1`, the MIC with Staphylococcus aureus [1] was 5 µM (≈ 1.96 µg/mL); in the experiment with Staphylococcus aureus [2], 656 µM (≈ 257 µg/mL); with Enterococcus faecalis, 164 µM (≈ 64.2 µg/mL); with Staphylococcus aureus [3], 1660 µM (≈ 648 µg/mL); with Staphylococcus aureus [4] it was 656 µM (≈ 257 µg/mL); in the experiment on Klebsiella pneumoniae it was 656 µM (≈ 257 µg/mL). Besides, the MIC in the experiment on Escherichia coli [5] came to 656 µM (≈ 257 µg/mL); in the experiment with Escherichia coli [6], 656 µM (≈ 257 µg/mL); in the experiment on Pseudomonas aeruginosa [7], 1 µM (≈ 0.391 µg/mL); in the experiment on Pseudomonas aeruginosa [8] it was 656 µM (≈ 257 µg/mL); with Acinetobacter baumannii [9], 656 µM (≈ 257 µg/mL).
Turning to `Cc1cn(-c2nccc(N(CCO)CCO)n2)c(C)n1`, the minimal inhibitory concentration (MIC) with Staphylococcus aureus [1] amounted to 924 µM (≈ 256 µg/mL); with Staphylococcus aureus [2] it was 924 µM (≈ 256 µg/mL); in the experiment on Enterococcus faecalis, 58 µM (≈ 16.1 µg/mL); in the experiment on Staphylococcus aureus [3], 924 µM (≈ 256 µg/mL); in the experiment on Staphylococcus aureus [4], 924 µM (≈ 256 µg/mL); with Klebsiella pneumoniae, 924 µM (≈ 256 µg/mL). For the same compound, the MIC is 924 µM (≈ 256 µg/mL) in the experiment on Escherichia coli [5]; 924 µM (≈ 256 µg/mL) with Escherichia coli [6]; 462 µM (≈ 128 µg/mL) with Pseudomonas aeruginosa [7]; 924 µM (≈ 256 µg/mL) in the experiment with Pseudomonas aeruginosa [8]; 924 µM (≈ 256 µg/mL) in the experiment with Acinetobacter baumannii [9].
